In data set [1] the target is T1, human brain maxi-K channel α-subunit (hSlo) (Homo sapiens, UniProt Q12791).
T1 construct: expressed in transfected cells; host or cells: HEK-293, stably transfected (pcDNA3, G418 selection)
The data set can be described thus: whole-cell patch-clamp of hSlo-mediated outward currents in transfected HEK-293 cells. The class given is cell-based. As to conditions: for effect on hSlo-mediated current amplitudes: BMS-A at 1 μM. As to the method:
HEK-293 cells were transfected with 1-2 μg of pcDNA3 expression plasmid containing hSlo α-subunit cDNA (S. I. Dworetzky et al., 1994, Brain Res. Mol. Brain Res., 27:189-193) using lipofectamine (Gibco) according to the manufacturer's protocol. Cells stably transfected with hSlo were selected in medium supplemented with 0.5 mg/ml Geneticin (G418; Sigma). Transfected HEK-293 cells were grown in Minimum Essential Medium (MEM; Gibco) supplemented with 10% fetal calf serum and G418 at 37° C. in a humidified atmosphere of 5% CO2 and 95% […]. Cells were plated on fibronectin-coated glass cover slips in 35 mm culture dishes.
Outward K^+-mediated currents were examined using standard whole-cell patch-clamp techniques (P. O. Hamill et al., 1981, Pflugers Arch., 391:85-100). Records were filtered at 2 kHz prior to digitization at 10 or 20 kHz. The bathing solution contained the following components: NaCl, 145 mM; KCl, 3 mM; CaCl2, 2.5 mM; MgCl2 1 mM; HEPES, 10 mM; pH 7.4. The recording pipettes were pulled from thick-walled borosilicate glass (2-4 Mω in bathing solution), fire polished and filled with a solution containing: KCl 140 mM; MOPS, 20 mM; EGTA, 1.0 mM; pH 7.2, with CaCl2 adjusted to produce the required [Ca^2+]free (determined using the EQCAL program (Biosoft, Cambridge) incorporating the methods of A. Fabiato and F. Fabiato, 1995, J. Physiol., Paris. 75:463-505.
Stimulus generation and data acquisition were controlled by either an Axopatch 200 amplifier or an EPC 9 amplifier, and the Pulse program suite. Data were stored and analyzed off-line. The cell holding potential was −100 mV for experiments with 2.5 μM [Ca^2+]i, and −80 or […] for the remaining Ca^2+ concentrations (1 μM, 250 nM and 50 nM). A series of 10 mV depolarizing voltage steps (100 to 200 ms) appropriate to the [Ca^2+]i was applied to evoke a family of outward currents. Series resistance was ≦6Mω before 80% compensation. Currents were measured at steady state near the end of the voltage pulse.
Using the whole-cell voltage-clamp technique (R. Penner, 1995, “A Practical Guide to Patch Clamping”; In: Single Channel Recording, 2nd Edition, (Eds. B. Sakmann and E. Neher), Plenum Press, New York, pp. 3-30), hSlo-mediated outward currents were recorded with pipettes containing different concentrations of Ca^2+ (i.e., [Ca^2+]free=50 nM, 1 μM or 2.5 μM). Clamped cells were exposed to 5 μM of the fluoro-oxindole opener compound BMS-204352, or the chloro-oxindole opener compound BMS-225113, as described in Examples 1.
For outside-out and whole cell patch analyses, the solutions used are normal extracellular Na^+ solution containing (in mM): NaCl, 145; KCl, 3; CaCl2, 2.5; MgCl2, 1; HEPES, 10; ±glucose, 10; pH 7.4. Intracellular and extracellular medium for inside-out patches, or pipette solution for whole-cell patch, comprise (in mM): KCl, 140; MOPS, 20; EGTA, 1.0; pH 7.2 CaCl2 adjusted to produce the required [Ca^2+]free (determined using the EQCAL program; Biosoft, Cambridge). The cell holding potential for whole-cell recordings is −80 or −60 mV and depolarizing voltage steps appropriate to the internal Ca^2+ concentration are applied (at high intracellular Ca^2+ seals become unstable at higher clamp voltages, and are stable at lower voltages for shorter periods).
This example describes experiments that were conducted to determine the effects of intracellular Ca^2+ concentration ([Ca^2+]i) and the use of the BMS-A compound (see U.S. Pat. No. 5,869,509, Example 82), versus a known benzimidazolone compound called NS-1619 [D. Strbaek et al., 1996, Neuropharmacology, 35:903-914 and M. McKay et al., 1997, J. Neurophysiology, 71:1873], on whole-cell currents in HEK-293 cells genetically engineered to express a human brain hSlo α-subunit. For these experiments, the cell holding potential was either −80 or −100 mV and a series of 10 mV depolarizing voltage steps appropriate to the [Ca^2+]i, was applied. […]
Background: Patch clamp records ionic current or voltage across a cell membrane.

Data set [2] relates to cortical infarct volume. The data set can be described thus: permanent MCA occlusion in SHR rat, MRI. The note with it: 0.3 mg/kg bolus IV 2 hours after occlusion onset; at 5.5 and 24 hours after occlusion. The class given is in vivo, spontaneously hypertensive rats (SHR).
A short description of data set [3]: cardiovascular safety in rats. The class given is in vivo. The note with it: doses at least 3× higher than the highest neuroprotective dose of 1 mg/kg IV. How it is done:
(§1) BMS-204352 has an encouraging preclinical safety profile. […] In single- and multiple-dose studies unaffected by drug at doses at least 3×higher than the highest cytotoxic target organ changes following IV administration for 1 month at doses up to 10 mg/kg/day (rats) and for 10 days at doses up to 20 mg/kg/day (dogs).

The nature of another data set: teratogenicity in rats. The format is in vivo. How it is done:
as §1

The target in the next data set is T2, σ1 (Homo sapiens, UniProt Q99720).
T2 construct: PanLabs (contract screen)
The data set can be described thus: [3H](+)pentazocine binding, PanLabs screen. From the text:
(§2) BMS-204352 was also examined against a binding screen of over 50 receptors and enzyme systems (PanLabs ProfilingScreen® and DiscoveryScreen®). These systems include representatives of most G-protein coupled receptor families, ligand-gated ion channel families, as well as some voltage-gated ion channel binding sites such as the dihydropyridine receptor of L-type Ca^2+ channels. […] The significance of modest inhibition of σ1 ligand binding is unknown.

Data set [4] concerns Ca^2+-activated chloride (Cl^−) channels (native oocyte channels). Description: ion channel specificity, Cl- currents (electrophysiology). The class given is cell-based, Xenopus. The note with it: native oocyte Ca2+-activated Cl- channels. How it is done:
(§3) To determine the specificity of the effects of the opener compounds, including BMS-204352, on maxi-K potassium channels, the compounds were tested against a representative sample of cloned and native ion channels expressed in Xenopus oocytes and clonal cell lines and were assayed using standard electrophysiological techniques readily known to and practiced by those having skill in the art. These included voltage-dependent potassium channels (Kv1.3, Kv1.5, Kv2.1), Ca^2+-activated chloride (Cl^−) channels (native oocyte channels), the cystic fibrosis transmembrane conductance regulator Cl^− channel (CFTR) and Ca^2+ currents (native GH3 cell Ca^2+ current).

The test system of data set [5] is voltage-dependent potassium channels (Kv1.3, Kv1.5, Kv2.1). Description: ion channel specificity, Kv currents (electrophysiology). The class given is cell-based. How it is done:
as §3

A short description of data set [6]: teratogenicity in rabbits. The format is in vivo. As to the method:
as §1

The nature of data set [7]: genotoxicity in vitro and in vivo. How it is done: as §1
Data set [8] has as its system cortical infarct volume. The data set can be described thus: PUM,PIC,TCC model of acute stroke in Wistar normotensive rat. The format is in vivo. As to conditions: administered 2 hours post-occlusion. As to the method:
Permanent focal occlusion of the proximal middle cerebral artery (MCA) is performed using a modified version of the method originally developed by A. Tamura et al. (1981, J. Cerebr. Blood Flow Metab., 1:53-60). In the permanent unilateral MCA, permanent ipsilateral common carotid arteries (CCA) and transient contralateral CCA (PUM,PIC,TCC model), normotensive male Wistar rats are anesthetized with a combination of ketamine (40 mg/kg, i.m.) and xylazine (4.5 mg/kg, i.m.). After exposure of the left MCA via the subtemporal approach, a 2 mm section of the artery is electrocauterized and severed. Within 5 minutes, both CCA are exposed and occluded. […]
The contralateral temporary CCA occlusion reduces collateral flow sufficiently to allow for consistent, large cortical infarcts (S. Brint et al., 1988, Cerebr. Blood Flow Metab., 8:474-485). […] Animals are maintained throughout at 37° C. and monitored by means of a rectal probe. At 24 hours after the occlusion, animals are sacrificed and brains are removed and evaluated by triphenyltetrazolium chloride (TTC) staining to determine the area of infarct. Brain slices are photographed and infarct volumes determined with the assistance of computerized image analysis. Data are analyzed using ANOVAs and appropriate post-hoc tests (Dunnett's).

A further data set addresses T3, dopamine D3 receptor (Homo sapiens, UniProt P35462).
T3 construct: PanLabs (contract screen)
Description: [3H]spiperone binding, PanLabs screen. As to conditions: initial test.
Source text: as §2

Data set [9] concerns native GH3 cell Ca^2+ current. The data set can be described thus: ion channel specificity, native Ca2+ currents. The class given is cell-based. The note with it: at 1 and 10 μM; similar reductions due to current rundown in control cells. As to the method: as §3
The nature of data set [10]: brain penetrance and pharmacokinetics after IV administration in rat. The class given is in vivo. From the text:
The ischemic penumbra is an area of low vascular perfusion. For a neuroprotective agent to reach ischemic neurons at therapeutic doses following the onset of a stroke, it should enter the brain at very high levels.

Data set [11] can be described thus: cardiovascular safety in anesthetized and conscious dogs. The class given is in vivo. As to conditions: doses at least 3× higher than 1 mg/kg IV. How it is done: as §1
The test system of data set [12] is cortical infarct volume. The data set can be described thus: permanent MCA occlusion in SHR rat. The note with it: administered 2 hours following occlusion onset, doses neuroprotective at earlier time points. The class given is in vivo, spontaneously hypertensive rats (SHR).

T1 sequence (Q12791 1-1178 isoform Q12791-5): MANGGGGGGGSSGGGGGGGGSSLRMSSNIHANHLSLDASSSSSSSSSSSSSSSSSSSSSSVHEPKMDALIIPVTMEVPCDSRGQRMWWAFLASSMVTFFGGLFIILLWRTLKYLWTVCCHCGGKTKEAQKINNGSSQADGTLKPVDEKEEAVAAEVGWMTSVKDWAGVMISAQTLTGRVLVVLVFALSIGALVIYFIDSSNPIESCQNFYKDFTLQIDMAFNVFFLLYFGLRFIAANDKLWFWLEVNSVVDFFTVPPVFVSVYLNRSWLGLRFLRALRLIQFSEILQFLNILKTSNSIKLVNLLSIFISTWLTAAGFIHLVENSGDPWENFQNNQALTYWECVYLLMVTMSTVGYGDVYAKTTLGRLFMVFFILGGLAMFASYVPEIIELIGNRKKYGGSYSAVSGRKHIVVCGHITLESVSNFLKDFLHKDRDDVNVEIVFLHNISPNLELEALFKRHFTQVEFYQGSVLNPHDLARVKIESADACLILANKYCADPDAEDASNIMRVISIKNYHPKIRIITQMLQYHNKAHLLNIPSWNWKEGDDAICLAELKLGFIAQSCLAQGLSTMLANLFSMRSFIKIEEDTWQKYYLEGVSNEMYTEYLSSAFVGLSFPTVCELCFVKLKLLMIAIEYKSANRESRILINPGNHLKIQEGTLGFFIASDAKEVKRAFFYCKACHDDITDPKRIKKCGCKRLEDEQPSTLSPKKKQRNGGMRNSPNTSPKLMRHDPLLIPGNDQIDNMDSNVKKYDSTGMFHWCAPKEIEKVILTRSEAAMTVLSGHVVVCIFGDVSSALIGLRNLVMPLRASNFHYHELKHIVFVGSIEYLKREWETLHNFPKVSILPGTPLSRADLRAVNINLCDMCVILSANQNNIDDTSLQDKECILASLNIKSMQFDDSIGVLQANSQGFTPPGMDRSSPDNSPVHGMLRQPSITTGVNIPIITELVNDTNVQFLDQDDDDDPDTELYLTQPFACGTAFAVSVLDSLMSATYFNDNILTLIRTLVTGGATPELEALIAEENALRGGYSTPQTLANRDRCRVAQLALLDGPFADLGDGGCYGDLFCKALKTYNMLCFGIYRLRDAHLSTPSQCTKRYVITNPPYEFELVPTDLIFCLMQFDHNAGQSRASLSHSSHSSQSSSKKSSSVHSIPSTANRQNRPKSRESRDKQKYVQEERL
T3 sequence (P35462 whole entry): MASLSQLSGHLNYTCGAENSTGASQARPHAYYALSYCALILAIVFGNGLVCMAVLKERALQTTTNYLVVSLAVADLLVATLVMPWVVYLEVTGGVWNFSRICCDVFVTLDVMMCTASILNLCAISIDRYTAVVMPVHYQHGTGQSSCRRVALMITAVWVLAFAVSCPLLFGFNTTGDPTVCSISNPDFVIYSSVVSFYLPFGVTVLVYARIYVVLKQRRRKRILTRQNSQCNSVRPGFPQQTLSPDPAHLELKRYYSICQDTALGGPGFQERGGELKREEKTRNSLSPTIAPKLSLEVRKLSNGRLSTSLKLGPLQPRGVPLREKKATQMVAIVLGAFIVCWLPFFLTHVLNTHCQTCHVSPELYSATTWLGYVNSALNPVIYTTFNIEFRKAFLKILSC
T2 sequence (Q99720 whole entry): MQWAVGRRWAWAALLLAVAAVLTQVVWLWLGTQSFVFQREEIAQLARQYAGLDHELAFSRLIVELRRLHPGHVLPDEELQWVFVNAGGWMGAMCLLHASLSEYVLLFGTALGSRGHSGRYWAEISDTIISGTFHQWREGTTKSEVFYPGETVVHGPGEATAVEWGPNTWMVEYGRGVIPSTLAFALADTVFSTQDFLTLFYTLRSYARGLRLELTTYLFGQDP

On to `COc1ccc(Cl)cc1C1(Cl)C(=O)Nc2cc(C(F)(F)F)ccc21` (racemic) [BMS-225113, (±)-(5-chloro-2-methoxyphenyl)1,3-dihydro-3-chloro-6-(trifluoromethyl)-2H-indol-2-one], for which the “effect on hSlo-mediated currents” value in data set [1] (compound 5 μM, [Ca2+]i 50 nM, 250 nM, 1 μM or 2.5 μM) was “significant increases only at the highest concentrations of Ca^2+ (1 μM and 2.5 μM)”. Further, the “effect on maxi-K currents” value in data set [1] (compound 10 μM, [Ca2+]i 250 nM, 1.0 μM, 2.5 μM (FIG. 3A)) was “greater increases in maxi-K currents under conditions of higher [Ca^2+]i”.

With `COc1ccc(Cl)cc1C1(F)C(=O)Nc2cc(C(F)(F)F)ccc21` (racemic) [Compound 1, (±)-(5-Chloro-2-methoxyphenyl)-1,3-dihydro-3-fluoro-6-(trifluoromethyl)-2H-indol-2-one], the “cortical infarct volume (MRI)” value with cortical infarct volume [2] is on record as “significant reduction in cortical infarct volume”.

By inhibition is commonly meant the drop in the measured response relative to a control, in per cent. A low value points to little suppression. A word on the Tmax: it is the time at which the peak concentration occurs. As a reminder, the Cmax is the maximum level reached in the sampled fluid or tissue. On to `COc1ccc(Cl)cc1[C@]1(F)C(=O)Nc2cc(C(F)(F)F)ccc21` [BMS-204352, (3S)-(+)-(5-Chloro-2-methoxyphenyl)-1,3-dihydro-3-fluoro-6-(trifluoromethyl)-2H-indol-2-one], for which the “heart rate and mean arterial blood pressure” value in data set [3] and in [11] was “unaffected” throughout. For the same compound, the teratogenicity entry (in the data set “teratogenicity in rats”; in data set [6]) was “not teratogenic” in each case. The inhibition at 10 µM turned out to be 54% at σ1 and 74% at dopamine D3 receptor. Also, the “effect on Cl- currents” value in [4] is given as “no significant effect”. In addition, the “effect on Kv currents” value in data set [5] was “no significant effect”. Further, in [7], the genotoxicity entry is given as “not genotoxic”. For the same compound, the “maximum reduction of cortical infarct volume” value with cortical infarct volume [8] worked out at 41%. For the same compound, the “typical reductions of cortical infarct volume” value in the data set with cortical infarct volume [8] is given as 20-30%. Besides, the “reduction of native Ca2+ current” value in [9] is listed as 15-16%. Also, the Tmax in data set [10] (5 mg/kg, rat brain, IV administration) was 15 min. The same compound gave a Cmax in data set [10] (brain, rat, 5 mg/kg IV bolus dose) above 10000 ng/g. For the same compound, the brain half life in data set [10] (rat, IV) was found to be 114 min. Further, the plasma half life in [10] (rat, IV) was 96 min. In addition, the “ratio of brain to plasma of the total compound detected” value in data set [10] (rat, over an 8 hour period) came to 9.6.

Turning to `O=c1oc(-c2ccc(C(F)(F)F)cc2)nn1Cc1cc(Cl)ccc1O` [BMS-A, 3-[(5-chloro-2-hydroxyphenyl)methyl]-5-[4-(trifluoromethyl)phenyl]-1,3,4-oxadiazol-2-(3H)-one], the “effect on hSlo-mediated current amplitudes” value was “decreased current amplitudes over a wide range of voltages” in data set [1] ([Ca2+]i 50 nM) and “increased hSlo-mediated current amplitudes at the highest voltages” in [1] ([Ca2+]i 2.5 μM).

With `CCc1cccc(N(C)C(N)=Nc2cccc3ccccc23)c1` [CNS-1102], in the data set on cortical infarct volume [12], the neuroprotection entry is “ineffective”.

Regarding `C[C@]12N[C@H](Cc3ccccc31)c1ccccc12` [MK-801], in the data set with cortical infarct volume [12], the neuroprotection entry is recorded as “ineffective”.

In the case of `O=c1[nH]c2cc(C(F)(F)F)ccc2n1-c1cc(C(F)(F)F)ccc1O` [NS-1619, reference compound], the “effect on hSlo-mediated current amplitudes” value in data set [1] ([Ca2+]i 50 nM) and in data set [1] ([Ca2+]i 2.5 μM) was “increasing the hS/omediated current amplitudes at upper voltages” each time.

Source of the values: patent US20020045566A1, “Selective maxi-K potassium channel openers functional under conditions of high intracellular calcium concentration, methods and uses thereof” (priority 2000, published 2002).
